Test results taken from US20100138957A1 (priority 2007, published 2010).

Legend:
Pseudomonas aeruginosa = conditions: cited from earlier work
Xylella fastidiosa = conditions: in vivo
[1] = test system: human intestinal epithelial cells; conditions: cited from earlier work
[2] = test system: pathogenic Vibrio bacteria; conditions: intraperitoneal injection, juvenile coho salmon; cited from earlier work
[3] = test system: 18 bacterial and fungal microorganisms; conditions: cited from earlier work

With KWKLFKKIGIGAVLKV TTGLPALKTLK [CEMA] as the substance, how does the MIC (Pseudomonas aeruginosa) read?
The MIC was 2.8 μg per ml.

What does the source list for “MAKWKLFKKIGIGFKKAAHVGKAALTK [B-passerin]”?
time plants survived stringent disease challenges with no or lessened visible symptoms (Xylella fastidiosa): up to 12 months; time surviving plants remained symptomless (Xylella fastidiosa): over 8 months; transgenic plants that survived the high stringency greenhouse test (Xylella fastidiosa): 90%

Which cytotoxic effects [1] does the source give for “Pleurocidin: 25-residue cationic antimicrobial peptide from skin secretions of winter flounder (GWGSFFKKAAHVGKHVGKAALTHYL; Pleurocidin; UniProt P81941 23-47, looked up)” here?
The cytotoxic effects was “no cytotoxic effects”.

And the “efficacy against lethal vibriosis compared to CEME” value [2]?
Its value is “more effective”.

What about the “microorganisms against which the peptide was effective” value [3] of the same substance?
The value was 17 of the 18.
